The record followed here is US10118902B2 (Sanford Burnham Prebys Medical Discovery Institute, priority 2014, dated 2018).

In the assay the target is neurotensin receptor 1 (NTR1) (Homo sapiens (Human), UniProt P30989). In words: NTR1 dose response, high-content imaging beta-arrestin-GFP assay in NTR1-U2OS cells. The assay is classed as cell-based. To be noted: read-out: EC50.
neurotensin receptor 1 (NTR1), sequence (P30989 whole entry, species assumed): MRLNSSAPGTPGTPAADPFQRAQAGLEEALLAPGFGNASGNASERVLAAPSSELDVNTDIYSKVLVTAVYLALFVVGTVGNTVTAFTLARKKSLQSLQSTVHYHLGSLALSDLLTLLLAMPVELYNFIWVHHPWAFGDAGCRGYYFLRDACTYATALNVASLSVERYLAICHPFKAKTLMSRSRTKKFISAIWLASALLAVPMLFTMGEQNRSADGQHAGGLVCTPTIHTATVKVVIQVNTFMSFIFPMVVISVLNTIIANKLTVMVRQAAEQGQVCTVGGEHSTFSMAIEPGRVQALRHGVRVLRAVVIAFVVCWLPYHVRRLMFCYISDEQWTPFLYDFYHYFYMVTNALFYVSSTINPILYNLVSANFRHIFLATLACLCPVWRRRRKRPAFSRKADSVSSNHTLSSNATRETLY

For orientation: EC50 means the concentration giving half of the maximal effect. For the compound `CCCN(C)c1ccc2nc(-c3ccccc3)nc(N3CCC(c4ccccc4OC)CC3)c2c1` [Example 146, {4-[4-(2-methoxy-phenyl)-piperidin-1-yl]-2-phenyl-quinazolin-6-yl}-methyl-propyl-amine], the EC50 is over 10 µM. As for `COc1ccccc1C1CCN(c2nc(C3(F)CCCC3)nc3ccc(N(C)CCN4CCOCC4)cc23)CC1` [Example 71, {2-(1fluoro-cyclopentyl)-4-[4-(2-methoxy-phenyl)-piperidin-1-yl]-quinazolin-6-yl}-methyl-(2-morpholin-4-yl-ethyl)-amine], the EC50 lay within 2 to 10 µM.

In the case of `CCCN(C)c1ccc2nc(N(C)C)nc(N3CCC(c4ccccc4OC)CC3)c2c1` [Example 95, 4-(4-(2-methoxyphenyl)piperidin-1-yl)-N2,N2,N6-trimethyl-N6-propylquinazoline-2,6-diamine], the EC50 is over 10 µM.

As to `COc1ccccc1C1CCN(c2nc(C3CC3)nc3ccc(N(C)CCO)c(Cl)c23)CC1` [Example 103, 2-({5-chloro-2-cyclopropyl-4-[4-(2-methoxy-phenyl)-piperidin-1-yl]-quinazolin-6-yl}-methyl-amino)-ethanol], the EC50 was under 0.5 µM. To `CCCN(C)c1ccc2nc(C3(N(C)CCC)CC3)nc(N3CCC(c4ccccc4OC)CC3)c2c1` [Example 21, {4-[4-(2-methoxy-phenyl)-piperidin-1-yl]-2-[1-(methyl-propyl-amino)-cyclopropyl]-quinazolin-6-yl}-methyl-propyl-amine] belongs over 10 µM; to `CN(C)c1ccccc1C1CCN(c2nc(C3(C)CC3)nc3ccc(N(C)CCO)cc23)CC1` [Example 25, 2-{[4-[4-(2-dimethylamino-phenyl)-piperidin-1-yl]-2-(1-methyl-cyclopropyl)-quinazolin-6-yl]-methyl-amino}-ethanol], 2 to 10 µM. The same measure for `COc1ccccc1N[C@@H]1CCN(c2nc(C3CC3)nc3ccc(N(C)CCO)cc23)C1` (stereo in doubt) [Example 153, 2-({2-cyclopropyl-4-[3-(2-methoxy-phenylamino)-pyrrolidin-1-yl]-quinazolin-6-yl}-methyl-amino)-ethanol]: over 10 µM; for `COc1cccc2c1CN(c1nc(C3CC3)nc3ccc(N(C)CCO)cc13)C2` [Example 149, 2-{[2-cyclopropyl-4-(4-methoxy-1,3-dihydro-isoindol-2-yl)-quinazolin-6-yl]-methyl-amino}-ethanol]: over 10 µM. For the compound `CCCN(C)c1ccc2nc(C3CC3)nc(N3CCC(c4ccccc4OC)CC3=O)c2c1` (stereo not drawn) [Example 102, 1-[2-cyclopropyl-6-(methyl-propyl-amino)-quinazolin-4-yl]-4-(2-methoxy-phenyl)-piperidin-2-one], the EC50 was over 10 µM. To `CN(C)c1ccccc1C1CCN(c2nc(C3(F)CCC3)nc3ccc(N(C)CCO)cc23)CC1` [Example 61, 2-{[4-[4-(2-dimethylamino-phenyl)-piperidin-1-yl]-2-(1-fluoro-cyclobutyl)-quinazolin-6-yl]-methyl-amino}-ethanol] belongs under 0.5 µM.

Consider `CN(C)c1ccccc1C1CCN(c2nc(C3(F)CCCC3)nc3ccc(N(C)CCN4CCOCC4)cc23)CC1` [Example 73, [4-[4-(2-dimethylamino-phenyl)-piperidin-1-yl]-2-(1-fluoro-cyclopentyl)-quinazolin-6-yl]-methyl-(2-morpholin-4-yl-ethyl)-amine], for which the EC50 fell in the range of 2 to 10 µM. In the case of `CN(CCN1CCCC1)c1ccc2nc(C3CC3)nc(N3CCC(c4ccccc4N4CCC4)CC3)c2c1` [Example 9, {4-[4-(2-azetidin-1-yl-phenyl)-piperidin-1-yl]-2-cyclopropyl-quinazolin-6-yl}-methyl-(2-pyrrolidin-1-yl-ethyl)-amine], the EC50 is over 10 µM. To `CN(C)CCN(C)c1ccc2nc(C3(C)CC3)nc(N3CCC(c4ccccc4N(C)C)CC3)c2c1` [Example 28, N-[4-[4-(2-dimethylamino-phenyl)-piperidin-1-yl]-2-(1-methyl-cyclopropyl)-quinazolin-6-yl]-N,N′,N′-trimethyl-ethane-1,2-diamine] belongs over 10 µM; to `COc1nccnc1C1CCN(c2nc(C3(CF)CC3)nc3ccc(N(C)CCO)cc23)CC1` [Example 219, 2-({2-(1-Fluoromethyl-cyclopropyl)-4-[4-(3-methoxy-pyrazin-2-yl)-piperidin-1-yl]-quinazolin-6-yl}-methyl-amino)-ethanol], 0.5 to 2 µM; to `COc1ccccc1C1CCN(c2nc(C3(C)CC3)nc3ccc(N(C)CCN4CCCC4)cc23)CC1` [Example 24, [4-[4-(2-methoxy-phenyl)-piperidin-1-yl]-2-(1-methyl-cyclopropyl)-quinazolin-6-yl]-methyl-(2-pyrrolidin-1-yl-ethyl)-amine], 2 to 10 µM. The same measure for `COc1ccccc1C1CCN(c2nc(C3CC3)nc3c(C)cc(N(C)CCO)cc23)CC1` [Example 125, 2-({2-cyclopropyl-4-[4-(2-methoxy-phenyl)-piperidin-1-yl]-8-methyl-quinazolin-6-yl}-methyl-amino)-ethanol]: under 0.5 µM. To `CN(C)c1ccc2nc(C3CC3)nc(N3CCC(c4ccccc4N4CCC4)CC3)c2c1` [Example 3] belongs over 10 µM.

As for `CN(C)c1ccccc1C1CCN(c2nc(C3CCCC3)nc3ccc(N(C)CCN4CCOCC4)cc23)CC1` [Example 74, {2-cyclopentyl-4-[4-(2-dimethylamino-phenyl)-piperidin-1-yl]-quinazolin-6-yl}-methyl-(2-morpholin-4-yl-ethyl)-amine], the EC50 is 2 to 10 µM. For `COc1nccnc1C1CCN(c2nc(C3(O)CCC3)nc3ccc(N(C)CCO)cc23)CC1` [Example 221, 1-(6-((2-hydroxyethyl)(methyl)amino)-4-(4-(3-methoxypyrazin-2-yl)piperidin-1-yl)quinazolin-2-yl)cyclobutanol], the concentration giving a half-maximal response (EC50) was over 10 µM.

`COc1ccccc1C1CCN(c2nc(C#CC3CC3)nc3ccc(N(C)CCO)cc23)CC1` [Example 136, 2-((2-(cyclopropylethynyl)-4-(4-(2-methoxyphenyl)piperidin-1-yl)quinazolin-6-yl)(methyl)amino)ethanol]: the EC50 is 2 to 10 µM. To `COc1ccccc1C1CCN(c2nc(C3(C)CCC3)nc3ccc(N(C)CCN4CCOCC4)cc23)CC1` [Example 69, [4-[4-(2-methoxy-phenyl)-piperidin-1-yl]-2-(1-methyl-cyclobutyl)-quinazolin-6-yl]-methyl-(2-morpholin-4-yl-ethyl)-amine] belongs 0.5 to 2 µM. The same measure for `COc1ccccc1C1CCN(c2nc(C3(F)CCC3)nc3ccc(N(C)CCO)cc23)CC1` [Example 59, 2-({2-(1-fluoro-cyclobutyl)-4-[4-(2-methoxy-phenyl)-piperidin-1-yl]-quinazolin-6-yl}-methyl-amino)-ethanol]: under 0.5 µM. The same measure for `COc1ccccc1N(C)C1CCCC1Nc1nc(C2CC2)nc2ccc(N(C)CCO)cc12` (stereo not drawn) [Example 151, 2-[(2-cyclopropyl-4-{2-[(2-methoxy-phenyl)-methyl-amino]-cyclopentylamino}-quinazolin-6-yl)-methyl-amino]-ethanol]: over 10 µM; for `COc1ccccc1C1CCN(c2nc(C3CC3)nc3cc(C)c(N(C)CCO)cc23)CC1` [Example 117, 2-({2-cyclopropyl-4-[4-(2-methoxy-phenyl)-piperidin-1-yl]-7-methyl-quinazolin-6-yl}-methyl-amino)-ethanol]: under 0.5 µM.
